Assay results as given in patent publication US20240174690A1, “ANNULATED 2-AMINO-3-CYANO THIOPHENES AND DERIVATIVES FOR THE TREATMENT OF CANCER” (BOEHRINGER INGELHEIM INTERNATIONAL GMBH, priority 2021, published 2024).
Values belong to the molecule of their own block, whether it stands above or below them.

Legend:
[1] = system: KRAS G12D-dependent Ba/F3 cells; assay: Ba/F3 proliferation assay, KRAS G12D; format: cell-based; conditions: Mus musculus, BaF3, 72 h, AlamarBlue
In short: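 Ba/F3 cells retrovirally transduced with KRAS G12 mutants, puromycin-selected and grown without IL-3, so proliferation depends on the mutant KRAS. Compounds tested in technical duplicates; viability read by AlamarBlue fluorescence, with curve fitting for potency.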

LOVO cells = assay: LOVO CTG proliferation assay (120 h) (CRC, G13D); format: cell-based; conditions: Homo sapiens, CTG 120 h
Description: LOVO CTG Proliferation Assay (120 h) (CRC, G13D)
LOVO cells (ATCC CCL-229) are dispensed into 384-well plates, flat and clear bottom (Greiner, PNr. 781091) at a density of 1000 cells per well in 60 μL DMEM (Sigma D6429)+10% Fetal Calf Serum (HyClone, PNr.: SH30084.03) and incubated at 37° C. in a CO2 incubator overnight. The next day, compounds (10 mM stock in DMSO) are added with the ECHO acoustic liquid handler system (Beckman Coulter), including DMSO controls. Plates are incubated for 120 h, and cell viability is measured using CellTiter-Glo luminescent cell viability reagent (Promega product code G7570). Viability (stated as percent of control) is defined as relative luminescence units RLU of each well divided by the RLU of cells in DMSO controls. IC50 values are determined from viability measurements by non-linear regression using a four-parameter model.

[2] = Caco-2 assay (permeability PappAB, PappBA, efflux ratio); format: in vitro ADME; conditions: human, Caco-2, 10 μM test compound, pH 7.4; for Papp A→B at 90 min, 10 μM: apical to basolateral; for efflux ratio at 90 min, 10 μM: efflux ratio PappBA/PappAB, read-out: Caco ER
From the text: The assay provides information on the potential of a compound to pass the cell membrane, on the extent of oral absorption as well as on whether the compound is actively transported by uptake and/or efflux transporters. Permeability measurements across polarized, confluent Caco-2 cell monolayers grown on permeable filter supports (Corning, catalog #3391) are used. […] The receiver and donor compartments contain 0.25% bovine serum albumine (BSA) in assay buffer. Passive diffusion and/or active transport of compounds across the monolayer is measured in both apical to basolateral (a-b) and basolateral to apical (b-a) direction. a-b permeability (PappAB) represents drug absorption from the intestine into the blood and b-a permeability (PappBA) drug secretion from the blood back into the intestine via both passive permeability as well as active transport mechanisms mediated by efflux and uptake transporters that are expressed on the Caco-2 cells. After a pre-incubation of 25-30 min at 37° C., at predefined time points (0, 30, 60 and 90 min), samples were taken from the receiver and donor compartment, respectively. Concentrations of test compounds in samples were measured by HPLC/MS/MS, samples from the donor compartment were diluted 1:50 (v:v) with assay buffer, samples from receiver compartment were measured without dilution.
Apparent permeabilities in a-b (PappAB) and b-a (PappBA) directions are calculated according to the formula:
[formula] • Vrec [mL]: buffer volume in receiver compartment • Cdon [μmol/mL]: concentration of test compound in donor compartment at t=0 • ΔCrec: difference between concentrations of test compound in receiver compartment at start and end of incubation time • Δt: Incubation time • Vrec·ΔCrec/Δt [μmol/min]: Amount of compound transferred to receiver compartment per time • A [cm^2]: filter surface
Caco-2 efflux ratios (ER) are calculated as the ratio of PappBA/PappAB.

SMILES: C[C@H](Oc1cc(-c2ccn(C3COC3)n2)nc(-c2noc3c2CCC[C@@]32CCCc3sc(N)c(C#N)c32)n1)[C@@H]1CCCN1C [II-109]
IC50 [1]: 80 nM | IC50 (LOVO cells): 76 nM | Papp A→B at 90 min, 10 μM [2]: 3.5 ×10⁻⁶ cm/s | efflux ratio at 90 min, 10 μM [2]: 7.4

SMILES: C[C@H](Oc1cc(-n2cc(Cn3ccnc3)nn2)nc(-c2noc3c2CCC[C@@]32CCCc3sc(N)c(C#N)c32)n1)[C@@H]1CCCN1C [II-113]
IC50 [1]: 106 nM | IC50 (LOVO cells): 123 nM | Papp A→B at 90 min, 10 μM [2]: 1.1 ×10⁻⁶ cm/s | efflux ratio at 90 min, 10 μM [2]: 30.9

SMILES: COC(=O)c1ccc(-c2cc(O[C@@H](C)[C@@H]3CCCN3C)nc(-c3noc4c3CCC[C@@]43CCCc4sc(N)c(C#N)c43)n2)o1 [II-114]
IC50 [1]: 99 nM | IC50 (LOVO cells): 142 nM | efflux ratio at 90 min, 10 μM [2]: 0.9

SMILES: C[C@H](Oc1cc(-n2cc(C3CC3)nn2)nc(-c2noc3c2CCC[C@@]32CCCc3sc(N)c(C#N)c32)n1)[C@@H]1CCCN1C [II-118]
IC50 [1]: 133 nM | IC50 (LOVO cells): 295 nM | efflux ratio at 90 min, 10 μM [2]: 0.7

SMILES: C[C@H](Oc1cc(-n2ccnc2)nc(-c2noc3c2CCC[C@@]32CCCc3sc(N)c(C#N)c32)n1)[C@@H]1C[C@@H](F)CN1C [II-120]
IC50 [1]: 149 nM | IC50 (LOVO cells): 401 nM | Papp A→B at 90 min, 10 μM [2]: 8 ×10⁻⁶ cm/s | efflux ratio at 90 min, 10 μM [2]: 1.5

SMILES: COCc1cn(-c2cc(O[C@@H](C)[C@@H]3CCCN3C)nc(-c3noc4c3CCC[C@@]43CCCc4sc(N)c(C#N)c43)n2)nn1 [II-121]
IC50 [1]: 77 nM | IC50 (LOVO cells): 129 nM | Papp A→B at 90 min, 10 μM [2]: 6.3 ×10⁻⁶ cm/s | efflux ratio at 90 min, 10 μM [2]: 3.7

SMILES: CNC(=O)c1cn(-c2cc(O[C@@H](C)[C@@H]3CCCN3C)nc(-c3noc4c3CCC[C@@]43CCCc4sc(N)c(C#N)c43)n2)nn1 [II-122]
IC50 [1]: 132 nM | IC50 (LOVO cells): 180 nM | Papp A→B at 90 min, 10 μM [2]: 7.9 ×10⁻⁶ cm/s | efflux ratio at 90 min, 10 μM [2]: 3.2

SMILES: C[C@H](Oc1cc(-n2cc(-c3cccnc3)nn2)nc(-c2noc3c2CCC[C@@]32CCCc3sc(N)c(C#N)c32)n1)[C@@H]1CCCN1C [II-123]
IC50 [1]: 93 nM | IC50 (LOVO cells): 72 nM | efflux ratio at 90 min, 10 μM [2]: 4.6

SMILES: C[C@H](Oc1cc(-n2cc(Cn3cncn3)nn2)nc(-c2noc3c2CCC[C@@]32CCCc3sc(N)c(C#N)c32)n1)[C@@H]1CCCN1C [II-124]
IC50 [1]: 58 nM | IC50 (LOVO cells): 128 nM | Papp A→B at 90 min, 10 μM [2]: 1 ×10⁻⁶ cm/s | efflux ratio at 90 min, 10 μM [2]: 33.7

The next molecules have a lower IC50 [1] than those just listed; values first:

IC50 [1]: 51 nM | IC50 (LOVO cells): 92 nM | efflux ratio at 90 min, 10 μM [2]: 0.5
SMILES: C[C@H](Oc1cc(-n2ccc(Br)n2)nc(-c2noc3c2CCC[C@@]32CCCc3sc(N)c(C#N)c32)n1)[C@@H]1CCCN1C [II-110]

IC50 [1]: 51 nM | IC50 (LOVO cells): 152 nM | Papp A→B at 90 min, 10 μM [2]: 1 ×10⁻⁶ cm/s | efflux ratio at 90 min, 10 μM [2]: 1.1
SMILES: C[C@H](Oc1cc(-n2ccc(-c3ccccn3)n2)nc(-c2noc3c2CCC[C@@]32CCCc3sc(N)c(C#N)c32)n1)[C@@H]1CCCN1C [II-119]

IC50 [1]: 46 nM | IC50 (LOVO cells): 309 nM | efflux ratio at 90 min, 10 μM [2]: 1.5
SMILES: C[C@H](Oc1cc(-c2cnsc2)nc(-c2noc3c2CCC[C@@]32CCCc3sc(N)c(C#N)c32)n1)[C@@H]1CCCN1C [II-111]

IC50 [1]: 42 nM | IC50 (LOVO cells): 58 nM | Papp A→B at 90 min, 10 μM [2]: 5.9 ×10⁻⁶ cm/s | efflux ratio at 90 min, 10 μM [2]: 5.6
SMILES: C[C@H](O)Cn1ccc(-c2cc(O[C@@H](C)[C@@H]3CCCN3C)nc(-c3noc4c3CCC[C@@]43CCCc4sc(N)c(C#N)c43)n2)n1 [II-112]

IC50 [1]: 36 nM | IC50 (LOVO cells): 58 nM | Papp A→B at 90 min, 10 μM [2]: 1.4 ×10⁻⁶ cm/s | efflux ratio at 90 min, 10 μM [2]: 20.7
SMILES: C[C@H](Oc1cc(-c2ccn(C[C@@H](C)O)n2)nc(-c2noc3c2CCC[C@@]32CCCc3sc(N)c(C#N)c32)n1)[C@@H]1CCCN1C [II-117]

IC50 [1]: 19 nM | IC50 (LOVO cells): 1010 nM | Papp A→B at 90 min, 10 μM [2]: 10 ×10⁻⁶ cm/s | efflux ratio at 90 min, 10 μM [2]: 2.4
SMILES: CO[C@@H]1C[C@@H]([C@H](C)Oc2cc(-c3ccn(C4COC4)n3)nc(-c3noc4c3CCC[C@@]43CCCc4sc(N)c(C#N)c43)n2)N(C)C1 [II-107]
